Measured values as given in article PMC11012829 (International Journal of Nanomedicine, 2024).

Experiments:
[1] = system: P-gp; details: cited from earlier work
[2] = type: in vivo, male Sprague-Dawley rats; details: oral, rats; for bioavailability after N-XBSD administration compared to the free drugs: same administration concentration

SMILES	P-gp substrate [1]	mean AUC0-t in the N-XBSD group versus free drugs group ([2]; p<0.05)	bioavailability after N-XBSD administration compared to the free drugs [2]	mean AUC0-t increased in the N-XBSD group compared to the free drugs ([2]; N-XBSD vs free drugs) [%]
O=C1C[C@@H](c2ccc(O[C@@H]3O[C@H](CO)[C@@H](O)[C@H](O)[C@H]3O)cc2)Oc2cc(O)ccc21 [Liquiritin, liquiritin]	substrates of P-gp	significantly higher	significantly higher	
OC[C@H]1O[C@@H](Oc2cc(O)cc(/C=C/c3ccc(O[C@@H]4O[C@H](CO)[C@@H](O)[C@H](O)[C@H]4O)cc3O)c2)[C@H](O)[C@@H](O)[C@@H]1O [Mulberroside A, mulberroside A]	substrates of P-gp		significantly higher	122.73
